Laboratory results as given in patent publication US4419358A, “Isethionic acid salt of 9-cyclohexyl-2-propoxy-9H-purine-6-amine and compositions containing an effective bronchodilating concentration of it” (Mead Johnson & Company, priority 1981, dated 1983).
Read-outs that look alike come from different tables or passages of the source.

Tests used:
Format in all cases: physicochemical
[1] = Water solubility of salts of MJ 13156 (Table 1, Method A or B); settings: for Solubility: room temperature (about 25° C.)
Experimental: More conventional pharmaceutically acceptable acid addition salts of MJ 13156 are not well suited for the present use due to a limited solubility and, in some cases, lack of stability.
^1 Solubility data obtained using one of two methods:
Solubilities of isolated salts determined in standard manner by adding
H2 O to weighed salt samples and directly obtaining solubility data.
Solubilities of salts prepared in situ determined by adding a
moleequivalent of each acid to a 140 mg sample of MJ 13156 and then
diluting with H2 O in increments to 2.5 mg/mL. A second
moleequivalent of acid was added to each sample and allowed to stand
overnight. The precipitates were collected, dried, and weighed to obtain

[2] = Dissociation of salts/solvates in water
Experimental: (§1) Preparation of the isethionate salt of MJ 13156 is carried out by treating an equivalent of base in ethyl acetate with 2 equivalents of isethionic acid in ethanol-ethyl acetate solution. Chilling the mixture yields the salt which is collected by filtration. The salt can similarly be prepared by using more concentration solutions of both the acid and the base in ethanol.

[3] = Basicity (ability of MJ 13156 to form salts with weak acids); settings: gluconic, lactobionic, acetic, and levulinic acids
Experimental: as §1

[4] = Method B: salts prepared in situ from 140 mg MJ 13156, second moleequivalent of acid added, overnight
[5] = Method A: H2O added to weighed samples of isolated salts
[6] = listed as methanesulfonate salt

Row | Solubility [1, 4] [µg/mL] | Solubility [1, 5] [µg/mL] | Structure (SMILES) | other results
1 | 1300 |  | CCCOc1nc(N)c2ncn(C3CCCCC3)c2n1 [phosphoric] | 
2 |  | 100000 | CCCOc1nc(N)c2ncn(C3CCCCC3)c2n1 [isethionic, 9-Cyclohexyl-2-propoxy-9H-purine-6-amine 2-Hydroxyethanesulfonate] | water solubility (in words) ([1]; listed as isethionate salt): clearly the most soluble of all those prepared
3 |  |  | CCCOc1nc(N)c2ncn(C3CCCCC3)c2n1 [acetic acid solvate] | dissociation in water (in words) [2]: dissociated in water to give MJ 13156 base
4 | 2400 |  | CCCOc1nc(N)c2ncn(C3CCCCC3)c2n1 [nitric] | 
5 |  |  | CC(=O)CCC(=O)O [levulinic acid] | dissociation in water (in words) [2]: dissociated in water to give MJ 13156 base
6 |  |  | CCCOc1nc(N)c2ncn(C3CCCCC3)c2n1 [MJ 13156, 9-cyclohexyl-2-propoxy-9H-purine-6-amine] | base strength (in words) [3]: too weak a base to form a salt with these acids
7 |  | 1400 | CCCOc1nc(N)c2ncn(C3CCCCC3)c2n1 [hydrochloric] | 
8 |  | 8000 | CCCOc1nc(N)c2ncn(C3CCCCC3)c2n1 [methanesulfonic] | water solubility (in words) [1, 6]: reasonable water solubility; dissociation in water (in words) [2, 6]: dissociates moderately in water
9 | 1600 |  | CCCOc1nc(N)c2ncn(C3CCCCC3)c2n1 [hydrobromic] | 
10 | 800 |  | CCCOc1nc(N)c2ncn(C3CCCCC3)c2n1 [sulfuric] | 
